Like-named read-outs stand apart in the source and are kept apart here.
Tests used:
[1] = molecular target: T1, HIV-1 IN LEDGF/p75-dependent activity (Human immunodeficiency virus type 1 group M subtype B, UniProt P04585); assay: HTRF LEDGF-dependent IN assay; format: biochemical; details: for IN inhibitory activity (in words): LEDGF/p75-dependent IN activity; for IC50: recombinant IN with LEDGF/p75, HTRF
T1 construct: Recombinant His and FLAG-IN proteins and His and FLAG-LEDGF proteins were expressed in Escherichia coli strain BL21 (DE3); His or FLAG (separate preparations); made in house; host or cells: Escherichia coli BL21 (DE3)
Procedure: Recombinant His and FLAG-IN proteins and His and FLAG-LEDGF proteins were expressed in Escherichia coli strain BL21 (DE3) and purified, as previously described.
IN activity in the presence of recombinant LEDGF/p75 protein were determined as described before. IN was pre-incubated in reaction buffer containing 20 mM HEPES pH 7.5, 1 mM DTT, 1% glycerol, 20 mM MgCl2, 0.05% Brij-35 and 0.1 mg/mL BSA with increasing concentration of compounds for 1 h at room temperature. After the addition to this mixture of 9 nM DNA donor substrate, 50 nM DNA acceptor substrate and 50 nM LEDGF/p75 protein (when required), the reaction was incubated at 37 °C for 90 min. The addition of 4 nM of Europium–Streptavidin to the reaction mixture provided the HTRF signal, which was recorded using a Perkin Elmer (Waltham, MA, USA) Victor 3 plate reader with 314 nm for excitation wavelength and 668 and 620 nm for the wavelength of the acceptor and the donor substrates emission, respectively.

[2] = molecular target: T2, HIV-1 RT-RNase H (Human immunodeficiency virus type 1 group M subtype B, UniProt P04585); assay: RNase H inhibitory assay (fluorescent RNA/DNA hybrid); format: biochemical; details: for IC50: wild type p66/p51 HIV-1 RT
T2 construct: preparation and purification of wild type p66/p51 HIV-1 RT; made in house
Procedure: The previously reported procedure was used for preparation and purification of wild type p66/p51 HIV-1 RT. Enzyme was stored in a 50% glycerol-containing buffer at −20 °C [32, 46]. An 18-nt 3′-fluorescein-labeled RNA annealed to a complementary 18-nt 5′-dabsyl-labeled DNA was used to determine IC50 values, following a previously described procedure. In brief, 1 μL of each inhibitor dissolved in DMSO was added to a 96-well plate, followed by 10 μL of the proper RT ([…]) in reaction buffer. The addition of 10 μL of RNA/DNA hybrid (2.5 μM) initiated the hydrolysis. Then, 50 mM Tris-HCl, pH 8.0, 60 mM KCl, 10 mM MgCl2, 1% DMSO, 150−800 ng of RT, 250 nM substrate, and increasing concentrations of inhibitor were chosen as final assay conditions. As negative control, wells containing only DMSO were used. Subsequently, the plates were incubated in a Spectramax Gemini EM fluorescence spectrometer for 10 min at 37 °C, measuring the fluorescence (λex = 485 nm; λem = 520 nm) at 1 min intervals in order to determine the linear initial rates in the presence (vi) and absence (vo) of inhibitor. Percent inhibition was assessed as 100(vo − vi)/vo and plotted against log[I]. Prism5 (GraphPad Software 5.0) was used to calculate the IC50 values. All assays were carried out in triplicate.

[3] = molecular target: T1, HIV-1 IN LEDGF/p75-dependent activity; parameters: method as in PMID 23631411; details: first experiment, 3,4-catechol analogue of 5; cited from earlier work
[4] = molecular target: T2, HIV-1 RT-RNase H; parameters: method as in PMID 23631411; details: cited from earlier work

With Cc1sc2nc(-c3ccc[nH]3)[nH]c(=O)c2c1C [Compound 27, 5,6-dimethyl-2-(1H-pyrrol-2-yl)thieno[2,3-d]pyrimidin-4(3H)-one] the “IN inhibitory activity (in words)” value [1] was “completely IN inactive”, the IC50 [1] was over 50 µM and the IC50 [2] was 35.3 ± 1.5 µM.

O=c1[nH]c(-c2cc(O)cc(O)c2)nc2sc3c(c12)CCCCC3 [Compound 18] gave an IC50 [1] of 3.37 ± 0.48 µM.

O=c1[nH]c(-c2ccc(O)cc2O)nc2sc3c(c12)CCCCC3 [Compound 16] showed an IC50 [1] of 10 ± 1 µM.

CC1CCCc2sc3nc(-c4ccc(O)c(O)c4)[nH]c(=O)c3c21 (stereo not shown) [Compound 19, 2-(3,4-dihydroxyphenyl)-5-methyl-5,6,7,8-tetrahydrobenzo[4,5]thieno[2,3-d]pyrimidin-4(3H)-one] gave an IC50 [1] of 5.9 ± 0.5 µM.

For Cc1sc2nc(-c3cccs3)[nH]c(=O)c2c1C [Compound 24, 5,6-dimethyl-2-(thiophen-2-yl)thieno[2,3-d]pyrimidin-4(3H)-one], the “IN inhibitory activity (in words)” value [1] was “inactive”, the IC50 [1] was over 50 µM and the IC50 [2] was 8.2 ± 1.3 µM.

In the case of CC(C)Cc1csc2nc(-c3ccc(O)c(O)c3)[nH]c(=O)c12 [Compound 20, 2-(3,4-dihydroxyphenyl)-5-isobutylthieno[2,3-d]pyrimidin-4(3H)-one], the IC50 [1] is reported as 8.5 ± 2.5 µM.

For CCCc1c(C)sc2nc(-c3ccc(O)c(O)c3)[nH]c(=O)c12 [Compound 29], the IC50 [3] is given as over 50 µM.

For O=c1[nH]c(-c2cc(O)ccc2O)nc2sc3c(c12)CCCCC3 [Compound 17], the IC50 [1] was 5.65 ± 0.15 µM.

Molecule Cc1sc2nc(-c3ccccc3O)[nH]c(=O)c2c1C [Compound 11, 2-(2-hydroxyphenyl)-5,6-dimethylthieno[2,3-d]pyrimidin-4(3H)-one] has an IC50 [1] of 22 ± 2.8 µM.

Cc1sc2nc(-c3ccc(O)cc3O)[nH]c(=O)c2c1C [Compound 12, 2-(2,4-dihydroxyphenyl)-5,6-dimethylthieno[2,3-d]pyrimidin-4(3H)-one] showed an IC50 [1] of 22.3 ± 1.57 µM.

In the case of Cc1sc2nc(-c3ccc(O)c(O)c3)[nH]c(=O)c2c1C [Compound 8, 2-(3,4-dihydroxyphenyl)-5,6-dimethylthieno[2,3-d]pyrimidin-4(3H)-one], the IC50 [1] is given as 24.4 ± 2.6 µM, the IC50 [2] is given as 0.26 ± 0.01 µM and the IC50 [4] is given as 0.26 ± 0.01 µM.

In the case of Cc1sc2nc(-c3c[nH]c4ccccc34)[nH]c(=O)c2c1C [Compound 26], the IC50 [1] is given as 2.85 ± 0.85 µM and the IC50 [4] is given as 0.48 ± 0.6 µM.

With O=c1[nH]c(-c2cccc(O)c2O)nc2sc3c(c12)CCCCC3 [Compound 15] the IC50 [1] was 24 ± 1 µM.

In the case of Cc1sc2nc(-c3cc(O)cc(O)c3)[nH]c(=O)c2c1C [Compound 14, 2-(3,5-dihydroxyphenyl)-5,6-dimethylthieno[2,3-d]pyrimidin-4(3H)-one], the IC50 [1] is reported as 3.7 ± 0.73 µM.

Cc1sc2nc(-c3cc(O)ccc3O)[nH]c(=O)c2c1C [Compound 13] showed an IC50 [1] of 85 ± 6 µM.

For O=c1[nH]c(-c2ccc(O)c(O)c2)nc2sc3c(c12)CCCCC3 [Compound 9], the IC50 [1] is given as 18.3 ± 2.3 µM and the IC50 [4] is given as 0.29 ± 0.11 µM.

In the case of Cc1sc2nc(-c3cccn3C)[nH]c(=O)c2c1C [Compound 28, 5,6-dimethyl-2-(1-methyl-1H-pyrrol-2-yl)thieno[2,3-d]pyrimidin-4(3H)-one], the “IN inhibitory activity (in words)” value [1] is reported as “completely IN inactive”, the IC50 [1] is reported as over 50 µM and the IC50 [2] is reported as 14.8 ± 0.6 µM.

With Cc1sc2nc(-c3ccc([N+](=O)[O-])s3)[nH]c(=O)c2c1C [Compound 25, 5,6-dimethyl-2-(5-nitrothiophen-2-yl)thieno[2,3-d]pyrimidin-4(3H)-one] the IC50 [1] was 3.2 ± 0.8 µM, the “RNase H inhibitory activity (in words)” value [2] was “completely inactive” and the IC50 [2] was over 50 µM.

For Cc1sc2nc(-c3cccc(O)c3O)[nH]c(=O)c2c1C [Compound 10, 2-(2,3-dihydroxyphenyl)-5,6-dimethylthieno[2,3-d]pyrimidin-4(3H)-one], the IC50 [1] was 12.6 ± 1.29 µM.

For Cc1ccc(-c2nc3sc(C)c(C)c3c(=O)[nH]2)o1 [Compound 22, 5,6-dimethyl-2-(5-methylfuran-2-yl)thieno[2,3-d]pyrimidin-4(3H)-one], the IC50 [1] was 8.75 ± 0.35 µM and the IC50 [2] was 14.4 ± 0.2 µM.

For Cc1sc2nc(-c3ccco3)[nH]c(=O)c2c1C [Compound 21, 2-(furan-2-yl)-5,6-dimethylthieno[2,3-d]pyrimidin-4(3H)-one], the IC50 [1] was 5.75 ± 0.85 µM and the IC50 [2] was 2.5 ± 0.1 µM.

For Cc1sc2nc(-c3ccc([N+](=O)[O-])o3)[nH]c(=O)c2c1C [Compound 23], the IC50 [1] is listed as 4.6 ± 0.82 µM and the IC50 [4] is listed as 16.9 ± 1.7 µM.
